For data set [1] the following is noted: in dogs; ref Matsui et al. 1995; cited from earlier work.
Data set [2] relates to patients. The note with it: cited from earlier work; for arrhythmia risk category: associated risk of arrhythmia and possible TdP risk, ref Fanoe et al. 2014; for effect on QTc-interval and risk for torsades de pointes (TdP): patients; for risk group classification: ref www.crediblemeds.org.
For data set [3], the system named is Beagle dog liver microsomes. The data set can be described thus: Kinetic study: N-demethylation of CIT and DCIT in Beagle dog liver microsomes. Type of data set: in vitro ADME. The conditions noted are these: for IC of N-demethylation, Beagle dogs versus humans: liver microsomes, dog data of this study compared with literature human data; for Km1 / Km2 / Vmax1 / Vmax2: dog liver microsomes.

Test in data set [4]: as above
In kind it is in vitro ADME. The note with it: Beagle, dog, liver microsomes, pH 7.4. Background: Liver microsomes are a subcellular fraction often used to study metabolism.

Data set [5] concerns Beagle dogs. The note with it: cited from earlier work.
Data set [6] relates to Human liver microsomes. The note with it: cited from earlier work.
In data set [7] the test system is serotonin [5-hydroxytryptamine (5-HT)] reuptake. The conditions noted are these: compared with S-CIT; ref Hyttel et al. 1992; Hyttel 1993; cited from earlier work.
Data set [8] has as its system dog liver microsomes (CYP2D15, CYP3A12, CYP2C21/41). In kind it is in vitro ADME, Beagle dog. The conditions noted are these: for effect on the production of the DCIT and DDCIT enantiomers: dog liver microsomes, data not shown.
In data set [9] the test system is N-demethylation of DCIT; CYP3A12 (ketoconazole), CYP2C21/41 (omeprazole). In kind it is in vitro ADME, Beagle dog. The note with it: Beagle, dog, liver microsomes, pH 7.4, probe DCIT 10 and 100 μM, formation of DDCIT.
Data set [10] concerns N-demethylation of DCIT; CYP2D15 (quinidine). In kind it is in vitro ADME, Beagle dog. The conditions noted are these: Beagle, dog, liver microsomes.
Setting [11] is: substrate CIT, metabolite R-DCIT.
[12] abbreviates: substrate CIT, metabolite S-DCIT.
Where [13] appears, read: substrate DCIT, metabolite DDCIT.
The mark [14] stands for this setting: substrate DCIT, metabolite R-DDCIT.
Setting [15] is: substrate DCIT, metabolite S-DDCIT.
[16] abbreviates: 100 μM quinidine, 10 μM DCIT, n = 3.

As a reminder, the Km is the substrate concentration at which the rate is half of its maximum. Usually inhibition stands for the drop in the measured response relative to a control, in per cent.

Structures are written as SMILES. “And” between values parts separate entries of the source, which are not always exact repeats. Equal entries are not always repeated. Where two headings read alike, the source gives them in different places.

Turning to `CN(C)CCCC1(c2ccc(F)cc2)OCc2cc(C#N)ccc21` (stereo not shown) [CIT, citalopram], the mean elimination half-life in [1] is on record as 9.6 h. In data set [2], the arrhythmia risk category entry is recorded as “Class B”; the “effect on QTc-interval and risk for torsades de pointes (TdP)” value is on record as “increase the QTc-interval”; the risk group classification entry is on record as “risk group 1”. For the same molecule, the “IC of N-demethylation, Beagle dogs versus humans” value in data set [3] is on record as “about 10 times higher”. Besides, in [3] (substrate CIT, metabolite DCIT), the Km1 is 1.1 µM and 1.1 ± 0.3 µM; the Km2 is recorded as 1 006 μM; the Vmax1 was 47 ± 3 pmol/(min × mg of protein); the Vmax2 is 591 ± 28 pmol/(min × mg of protein). In data set [3] (setting [11]), the Km1 was determined as 1.4 ± 0.5 µM, the Vmax1 is recorded as 21 ± 2 pmol/(min × mg of protein) and the Vmax2 is 338 ± 24 pmol/(min × mg of protein). In data set [3] (setting [12]), the Km1 stood at 1.0 ± 0.2 µM, the Km2 turned out to be 848 ± 69 µM, the Vmax1 is recorded as 26 ± 1 pmol/(min × mg of protein) and the Vmax2 is 264 ± 10 pmol/(min × mg of protein). For the same molecule, the Km at 1 h in data set [4] was at most 1400 nM. Moreover, in [5] (dogs, ref Boeck and Overo 1982), the “convulsive effect in dogs” value was “severe convulsive attacks” and the “electrocardiographic changes in dogs” value is “no electrocardiographic changes were observed”. In addition, the Km in data set [6] (read-out: Km values, stereoselective CIT N-demethylation, human liver microsomes, ref Rochat et al. 1997, Olesen and Linnet 1999, von Moltke et al. 2001) was at least 17.3 µM.
With `CNCCCC1(c2ccc(F)cc2)OCc2cc(C#N)ccc21` (stereo not shown) [DCIT, desmethylcitalopram], the mean elimination half-life in [1] is reported as 8.1 h. Further, the “IC of N-demethylation, Beagle dogs versus humans” value in data set [3] is on record as “about 30 times higher”. In addition, in data set [3] (setting [13]), the Km1 turned out to be 0.6 ± 0.2 µM, the Km2 was 137 ± 18 µM, the Vmax1 is 44 ± 4 pmol/(min × mg of protein) and the Vmax2 is 155 ± 5 pmol/(min × mg of protein). Besides, in data set [3] (setting [14]), the Km1 worked out at 0.3 ± 0.2 µM; the Km2 is 212 µM and 212 ± 24 µM; the Vmax1 is given as 11 ± 2 pmol/(min × mg of protein); the Vmax2 was 105 ± 3 pmol/(min × mg of protein). In addition, in data set [3] (setting [15]), the Km1 is 0.6 ± 0.1 µM; the Km2 is 66 µM and 66 ± 11 µM; the Vmax1 was 31 ± 3 pmol/(min × mg of protein); the Vmax2 is 55 ± 2 pmol/(min × mg of protein). Further, the Km at 1 h in data set [4] was at most 1400 nM. In addition, the “IC values, N-demethylation of DCIT enantiomers” value in data set [6] (humans, ref von Moltke et al. 2001) is on record as ≤ 1.3 pmol/(min × mg protein). Also, the Km in data set [6] (read-out: Km values, N-demethylation of DCIT enantiomers, humans, ref von Moltke et al. 2001) was at least 72 µM. The “potency as serotonin reuptake inhibitors” value in [7] was “lower than that of S-CIT”.
Consider `N#Cc1ccc2c(c1)COC2(CCCN)c1ccc(F)cc1` (stereo not shown) [DDCIT, didesmethylcitalopram], for which the mean elimination half-life in data set [1] was 27.8 h. Further, in [5] (dog, ref Shanks et al. 2009), the “plasma level to which DDCIT toxicity is related” value was ≥ 1 000 nM and ≥ 300 ng/ml. Besides, the “potency as serotonin reuptake inhibitors” value in [7] is “lower than that of S-CIT”.
Turning to `CN(C)CCC[C@@]1(c2ccc(F)cc2)OCc2cc(C#N)ccc21` [S-CIT, S-citalopram], in data set [2], the arrhythmia risk category entry was “Class B”; the “effect on QTc-interval and risk for torsades de pointes (TdP)” value was “increase the QTc-interval”; the risk group classification result was “risk group 1”.
`Cc1nc2c([nH]1)c(=O)n(C)c(=O)n2Cc1ccco1` [furafylline]: the “effect on the production of the DCIT and DDCIT enantiomers” value in [8] is “did not notably modify”.
As for `CC(=O)N1CCN(c2ccc(OCC3COC(Cn4ccnc4)(c4ccc(Cl)cc4Cl)O3)cc2)CC1` (stereo not shown) [ketoconazole], in data set [9], the inhibition at 1 h was below 15%.
As to `COc1ccc2[nH]c([S+]([O-])Cc3ncc(C)c(OC)c3C)nc2c1` (stereo not shown) [omeprazole], the inhibition at 1 h in data set [9] is below 15%.
With `C=C[C@H]1C[N@@]2CC[C@H]1C[C@@H]2[C@@H](O)c1ccnc2ccc(OC)cc12` [quinidine], the inhibition at 1 h, 100 μM in data set [10] (pH 7.4, probe DCIT 10 μM, formation of R-DDCIT) was 80.5%; in data set [10] (pH 7.4, probe DCIT 10 μM, formation of S-DDCIT), 86.4%; in [10] (pH 7.4, probe DCIT 100 μM, formation of R-DDCIT), 61.6%; in [10] (pH 7.4, probe DCIT 100 μM, formation of S-DDCIT), 57.6%. Besides, the “difference in the production of S-DCIT from CIT in comparison to absence of the inhibitor” value in [8] (100 μM quinidine, 10 μM CIT, n = 5) is 36.9 ± 8.53 pmol/(min × mg protein). The “difference of the production of R-DDCIT in comparison to absence of the inhibitor” value in [8] (setting [16]) is recorded as 63.3 ± 2.72 pmol/(min × mg protein). Besides, the “difference of the production of S-DDCIT in comparison to absence of the inhibitor” value in data set [8] (setting [16]) is on record as 172 ± 6.6 pmol/(min × mg protein).
Consider `Nc1ccc(S(=O)(=O)Nc2ccnn2-c2ccccc2)cc1` [sulphaphenazole], for which the “effect on the production of the DCIT and DDCIT enantiomers” value in data set [8] is on record as “did not notably modify”.

These data come from article PMC10581520 (Veterinární Medicína, 2023).
